From ChEMBL document CHEMBL1909046, “DrugMatrix in vitro pharmacology data”

Columns and labels:
[1] = biological target: Kappa-type opioid receptor (Homo sapiens, UniProt P41145); assay: DRUGMATRIX: Opiate kappa (OP2, KOP) radioligand binding (ligand: [3H] Diprenorphine); type: cell membranes, HEK293, Membrane; conditions: hek293; Not Active = under 50% inhibition at 10 µM
[2] = biological target: T1, Cysteinyl leukotriene receptor 1 (Homo sapiens, UniProt Q9Y271); type: cell membranes, CHO-K1, Membrane; conditions: cho-k1; further: in other assays of this panel Not Active means under 50% inhibition at 10 µM
T1 sequence (Q9Y271 whole entry): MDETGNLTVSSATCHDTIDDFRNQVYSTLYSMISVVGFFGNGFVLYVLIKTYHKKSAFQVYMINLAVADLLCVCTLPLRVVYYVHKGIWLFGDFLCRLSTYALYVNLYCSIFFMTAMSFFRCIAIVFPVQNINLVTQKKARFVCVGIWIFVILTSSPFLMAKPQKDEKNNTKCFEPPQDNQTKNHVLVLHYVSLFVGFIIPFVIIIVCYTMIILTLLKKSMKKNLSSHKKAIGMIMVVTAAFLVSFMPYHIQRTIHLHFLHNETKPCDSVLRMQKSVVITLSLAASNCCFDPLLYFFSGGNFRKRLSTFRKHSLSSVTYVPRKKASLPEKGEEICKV

[3] = biological target: Vasopressin V1a receptor (Homo sapiens, UniProt P37288); type: cell membranes, Membrane; conditions: hek293; further: in other assays of this panel Not Active means under 50% inhibition at 10 µM
[4] = biological target: T2, Estrogen receptor (Homo sapiens, UniProt P03372); conditions: sf9; further: in other assays of this panel Not Active means under 50% inhibition at 10 µM
T2 sequence (P03372 whole entry): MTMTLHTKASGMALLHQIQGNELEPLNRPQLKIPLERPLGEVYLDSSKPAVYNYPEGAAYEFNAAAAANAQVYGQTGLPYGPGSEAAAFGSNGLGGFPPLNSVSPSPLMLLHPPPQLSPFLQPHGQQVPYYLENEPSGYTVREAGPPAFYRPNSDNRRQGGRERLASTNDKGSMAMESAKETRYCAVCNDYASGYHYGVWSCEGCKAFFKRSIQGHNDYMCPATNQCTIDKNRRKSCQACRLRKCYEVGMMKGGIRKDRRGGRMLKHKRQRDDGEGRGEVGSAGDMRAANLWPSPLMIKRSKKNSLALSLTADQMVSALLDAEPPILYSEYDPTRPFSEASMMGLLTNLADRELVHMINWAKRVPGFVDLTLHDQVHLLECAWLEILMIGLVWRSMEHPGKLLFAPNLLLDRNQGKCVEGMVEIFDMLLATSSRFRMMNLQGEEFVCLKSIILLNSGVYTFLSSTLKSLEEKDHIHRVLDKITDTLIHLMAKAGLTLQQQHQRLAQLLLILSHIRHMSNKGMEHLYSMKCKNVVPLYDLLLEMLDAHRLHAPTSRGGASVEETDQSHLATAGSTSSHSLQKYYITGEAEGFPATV

[5] = biological target: T3, 5-hydroxytryptamine receptor 2C (Homo sapiens, UniProt P28335); assay: DRUGMATRIX: Serotonin (5-Hydroxytryptamine) 5-HT2C radioligand binding (ligand: [3H] Mesulergine); type: cell membranes, CHO-K1, Membrane; conditions: cho-k1; Not Active = under 50% inhibition at 10 µM
T3 sequence (P28335 whole entry): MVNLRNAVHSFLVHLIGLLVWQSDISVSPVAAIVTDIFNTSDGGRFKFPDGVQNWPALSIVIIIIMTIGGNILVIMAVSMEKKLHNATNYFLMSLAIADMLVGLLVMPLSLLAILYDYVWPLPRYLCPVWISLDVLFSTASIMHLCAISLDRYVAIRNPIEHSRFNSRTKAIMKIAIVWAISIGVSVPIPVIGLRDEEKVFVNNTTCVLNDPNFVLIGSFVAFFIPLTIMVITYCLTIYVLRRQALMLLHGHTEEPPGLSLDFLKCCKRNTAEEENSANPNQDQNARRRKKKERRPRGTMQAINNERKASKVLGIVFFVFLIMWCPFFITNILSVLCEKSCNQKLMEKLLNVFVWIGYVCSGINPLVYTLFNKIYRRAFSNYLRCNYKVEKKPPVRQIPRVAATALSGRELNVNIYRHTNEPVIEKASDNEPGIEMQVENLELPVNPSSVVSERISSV

[6] = biological target: Mitogen-activated protein kinase 3 (Homo sapiens, UniProt P27361); assay: DRUGMATRIX: Protein Serine/Threonine Kinase, ERK1 enzyme inhibition (substrate: Myelin Basic Protein); set-up: species or system Escherichia coli; conditions: Not Active = under 50% inhibition at 10 µM
[7] = DRUGMATRIX: Sigma2 radioligand binding (ligand: [3H] Ifenprodil); type: cell membranes, Rattus norvegicus, Wistar, Brain, Membrane; conditions: Not Active = under 50% inhibition at 10 µM
[8] = DRUGMATRIX: Interleukin IL-1 radioligand binding (ligand: [125I] interleukin 1beta); type: cell membranes, Membrane; conditions: nih3t3; Not Active = under 50% inhibition at 10 µM
[9] = DRUGMATRIX: Calcium Channel Type L, Phenylalkylamine radioligand binding (ligand: [3H] (-)-Desmethoxyverapamil (D-888)); type: cell membranes, Rattus norvegicus, Wistar, Brain, Membrane; conditions: Not Active = under 50% inhibition at 10 µM
[10] = biological target: T4, Cholecystokinin receptor type A (Homo sapiens, UniProt P32238); type: cell membranes, Membrane; conditions: 1321-n1; further: in other assays of this panel Not Active means under 50% inhibition at 10 µM
T4 sequence (P32238 whole entry): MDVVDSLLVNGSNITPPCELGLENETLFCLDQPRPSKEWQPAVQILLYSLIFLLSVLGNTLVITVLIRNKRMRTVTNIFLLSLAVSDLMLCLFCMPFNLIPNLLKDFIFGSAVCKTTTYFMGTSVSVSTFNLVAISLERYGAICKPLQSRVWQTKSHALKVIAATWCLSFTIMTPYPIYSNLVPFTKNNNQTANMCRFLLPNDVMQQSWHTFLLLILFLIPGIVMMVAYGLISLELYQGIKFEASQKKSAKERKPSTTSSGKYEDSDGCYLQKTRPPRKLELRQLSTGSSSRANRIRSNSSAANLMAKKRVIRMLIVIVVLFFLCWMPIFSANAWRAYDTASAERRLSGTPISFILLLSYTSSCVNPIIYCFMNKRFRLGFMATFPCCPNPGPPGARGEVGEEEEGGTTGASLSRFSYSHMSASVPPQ

[11] = biological target: Cytochrome P450 3A4 (Homo sapiens, UniProt P08684); conditions: bti-tn-5b1-4; further: in other assays of this panel Not Active means under 50% inhibition at 10 µM
[12] = DRUGMATRIX: Potassium Channel [KATP] radioligand binding (ligand: [3H] Glyburide); type: cell membranes, Membrane; conditions: hit-t15; Not Active = under 50% inhibition at 10 µM
[13] = biological target: Melanocortin receptor 4 (Homo sapiens, UniProt P32245); type: cell membranes, Membrane; conditions: hek293; further: in other assays of this panel Not Active means under 50% inhibition at 10 µM
[14] = biological target: Matrix metalloproteinase-9 (Homo sapiens, UniProt P14780); type: cell-based
Sequence of Matrix metalloproteinase-9 (P14780 whole entry): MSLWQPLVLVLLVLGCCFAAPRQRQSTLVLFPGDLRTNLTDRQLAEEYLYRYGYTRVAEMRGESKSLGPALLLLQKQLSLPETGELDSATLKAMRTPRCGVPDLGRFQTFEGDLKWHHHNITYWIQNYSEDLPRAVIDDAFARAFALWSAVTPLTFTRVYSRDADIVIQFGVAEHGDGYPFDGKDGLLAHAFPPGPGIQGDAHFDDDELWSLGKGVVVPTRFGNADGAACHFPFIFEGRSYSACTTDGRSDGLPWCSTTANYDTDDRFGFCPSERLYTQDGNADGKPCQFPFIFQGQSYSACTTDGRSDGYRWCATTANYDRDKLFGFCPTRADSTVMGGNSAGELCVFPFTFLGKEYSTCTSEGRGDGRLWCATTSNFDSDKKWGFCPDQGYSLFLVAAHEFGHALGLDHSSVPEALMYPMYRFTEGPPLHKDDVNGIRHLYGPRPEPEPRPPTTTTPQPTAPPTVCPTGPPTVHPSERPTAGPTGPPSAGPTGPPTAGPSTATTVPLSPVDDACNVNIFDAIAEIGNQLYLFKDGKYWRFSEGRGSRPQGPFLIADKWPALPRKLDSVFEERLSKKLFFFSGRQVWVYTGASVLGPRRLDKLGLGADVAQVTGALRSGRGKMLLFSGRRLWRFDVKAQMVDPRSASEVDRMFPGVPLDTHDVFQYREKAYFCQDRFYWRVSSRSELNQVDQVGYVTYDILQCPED

Sequence of Vasopressin V1a receptor (P37288 whole entry): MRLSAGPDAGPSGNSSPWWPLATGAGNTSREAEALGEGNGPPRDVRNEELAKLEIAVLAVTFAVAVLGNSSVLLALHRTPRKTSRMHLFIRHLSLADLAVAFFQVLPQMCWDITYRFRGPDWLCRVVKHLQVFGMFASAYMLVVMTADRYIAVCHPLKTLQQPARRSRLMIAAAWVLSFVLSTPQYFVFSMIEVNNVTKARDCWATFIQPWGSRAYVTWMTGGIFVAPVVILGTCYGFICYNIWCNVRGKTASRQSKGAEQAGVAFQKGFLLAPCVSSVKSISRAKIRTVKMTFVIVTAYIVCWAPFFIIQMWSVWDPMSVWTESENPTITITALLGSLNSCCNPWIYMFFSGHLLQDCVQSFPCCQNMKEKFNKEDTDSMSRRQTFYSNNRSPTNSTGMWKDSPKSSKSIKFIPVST
Sequence of Mitogen-activated protein kinase 3 (P27361 whole entry): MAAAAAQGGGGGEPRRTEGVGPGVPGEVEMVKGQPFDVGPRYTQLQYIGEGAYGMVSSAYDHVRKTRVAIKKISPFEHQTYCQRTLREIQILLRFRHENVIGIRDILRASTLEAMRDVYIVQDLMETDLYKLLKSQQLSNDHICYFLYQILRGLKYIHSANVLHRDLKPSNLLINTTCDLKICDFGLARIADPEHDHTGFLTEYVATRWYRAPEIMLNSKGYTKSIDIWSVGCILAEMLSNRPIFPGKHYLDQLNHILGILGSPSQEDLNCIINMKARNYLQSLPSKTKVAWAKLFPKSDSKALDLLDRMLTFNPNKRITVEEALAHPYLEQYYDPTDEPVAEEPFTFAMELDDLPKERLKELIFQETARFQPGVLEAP
Sequence of Kappa-type opioid receptor (P41145 whole entry): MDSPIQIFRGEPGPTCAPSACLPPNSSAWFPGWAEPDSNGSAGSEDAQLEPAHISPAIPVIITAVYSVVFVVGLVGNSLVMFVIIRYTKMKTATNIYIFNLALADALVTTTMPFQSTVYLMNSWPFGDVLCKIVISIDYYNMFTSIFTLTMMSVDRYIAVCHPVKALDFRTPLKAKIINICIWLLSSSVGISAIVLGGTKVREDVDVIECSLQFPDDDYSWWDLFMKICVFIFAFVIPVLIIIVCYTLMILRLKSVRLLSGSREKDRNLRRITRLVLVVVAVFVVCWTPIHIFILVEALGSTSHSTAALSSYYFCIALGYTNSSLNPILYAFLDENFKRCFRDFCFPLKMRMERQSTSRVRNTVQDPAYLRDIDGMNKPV
Sequence of Cytochrome P450 3A4 (P08684 whole entry): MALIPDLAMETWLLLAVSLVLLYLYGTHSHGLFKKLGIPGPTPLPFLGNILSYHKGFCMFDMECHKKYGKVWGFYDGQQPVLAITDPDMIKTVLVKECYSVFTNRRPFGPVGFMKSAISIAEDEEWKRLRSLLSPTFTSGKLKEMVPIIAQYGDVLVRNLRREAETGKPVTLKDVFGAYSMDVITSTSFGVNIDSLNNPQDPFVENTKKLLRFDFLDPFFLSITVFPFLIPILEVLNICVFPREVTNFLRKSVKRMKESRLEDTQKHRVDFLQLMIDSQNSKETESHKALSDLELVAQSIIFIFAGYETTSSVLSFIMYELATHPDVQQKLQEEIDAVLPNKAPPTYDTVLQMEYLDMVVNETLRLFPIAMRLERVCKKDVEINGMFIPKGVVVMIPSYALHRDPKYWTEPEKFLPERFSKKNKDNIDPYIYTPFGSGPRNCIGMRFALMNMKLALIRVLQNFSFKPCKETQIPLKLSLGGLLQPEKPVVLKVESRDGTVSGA
Sequence of Melanocortin receptor 4 (P32245 whole entry): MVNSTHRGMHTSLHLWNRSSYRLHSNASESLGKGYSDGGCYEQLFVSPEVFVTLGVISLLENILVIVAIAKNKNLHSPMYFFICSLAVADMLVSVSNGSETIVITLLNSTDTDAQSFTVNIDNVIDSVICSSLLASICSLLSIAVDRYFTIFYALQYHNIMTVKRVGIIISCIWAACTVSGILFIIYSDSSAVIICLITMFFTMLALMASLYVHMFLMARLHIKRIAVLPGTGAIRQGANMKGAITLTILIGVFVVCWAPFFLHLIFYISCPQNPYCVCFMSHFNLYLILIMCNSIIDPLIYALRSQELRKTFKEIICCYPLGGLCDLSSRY

CC=CC(=O)N(CC)c1ccccc1C
Not Active: IC50 [1] | IC50 [2] | IC50 [3] | IC50 [4] | IC50 [5] | IC50 [6] | IC50 [7] | Ki [7] | IC50 [8] | Ki [8] | IC50 [9] | Ki [9] | IC50 [10] | IC50 [11] | Ki [11] | IC50 [12] | Ki [12] | IC50 [13] | IC50 [14]

C=C1C(=O)O[C@@H]2C3O[C@]3(C)CC/C=C(\C)CC[C@@H]12 (some centres not stated)
Not Active: IC50 [1] | IC50 [2] | IC50 [3] | IC50 [4] | IC50 [5] | IC50 [6] | IC50 [7] | Ki [7] | IC50 [8] | Ki [8] | IC50 [9] | Ki [9] | IC50 [10] | IC50 [11] | Ki [11] | IC50 [12] | Ki [12] | IC50 [13] | IC50 [14]

CC(/C=C1\SC(=S)N(CC(=O)O)C1=O)=C\c1ccccc1
Not Active: IC50 [1] | IC50 [2] | IC50 [3] | IC50 [4] | IC50 [5] | IC50 [6] | IC50 [7] | Ki [7] | IC50 [8] | Ki [8] | IC50 [9] | Ki [9] | IC50 [10] | IC50 [11] | Ki [11] | IC50 [12] | Ki [12] | IC50 [13] | IC50 [14]

O=c1cc(-c2ccccc2)oc2c1ccc1ccccc12 [ALPHA-NAPHTHOFLAVONE]
Not Active: IC50 [1] | IC50 [2] | IC50 [3] | IC50 [4] | IC50 [5] | IC50 [6] | IC50 [7] | Ki [7] | IC50 [8] | Ki [8] | IC50 [9] | Ki [9] | IC50 [10] | IC50 [11] | Ki [11] | IC50 [12] | Ki [12] | IC50 [13] | IC50 [14]

NCC[C@H](O)C(=O)N[C@@H]1C[C@H](N)[C@@H](O[C@H]2O[C@H](CN)[C@@H](O)[C@H](O)[C@H]2O)[C@H](O)[C@H]1O[C@H]1O[C@H](CO)[C@@H](O)[C@H](N)[C@H]1O [AMIKACIN]
Not Active: IC50 [1] | IC50 [2] | IC50 [3] | IC50 [4] | IC50 [5] | IC50 [6] | IC50 [7] | Ki [7] | IC50 [8] | Ki [8] | IC50 [9] | Ki [9] | IC50 [10] | IC50 [11] | Ki [11] | IC50 [12] | Ki [12] | IC50 [13] | IC50 [14]

CCOC(=O)OC(C)OC1=C(C(=O)Nc2ccccn2)N(C)S(=O)(=O)c2ccccc21 (configuration not stated) [AMPIROXICAM]
Not Active: IC50 [1] | IC50 [2] | IC50 [3] | IC50 [4] | IC50 [5] | IC50 [6] | IC50 [7] | Ki [7] | IC50 [8] | Ki [8] | IC50 [9] | Ki [9] | IC50 [10] | IC50 [11] | Ki [11] | IC50 [12] | Ki [12] | IC50 [13] | IC50 [14]

Cn1cnc([N+](=O)[O-])c1Sc1ncnc2nc[nH]c12 [AZATHIOPRINE]
Not Active: IC50 [1] | IC50 [2] | IC50 [3] | IC50 [4] | IC50 [5] | IC50 [6] | IC50 [7] | Ki [7] | IC50 [8] | Ki [8] | IC50 [9] | Ki [9] | IC50 [10] | IC50 [11] | Ki [11] | IC50 [12] | Ki [12] | IC50 [13] | IC50 [14]

CC1(C)S[C@@H]2[C@H](NC(=O)[C@H](NC(=O)N3CCNC3=O)c3ccccc3)C(=O)N2[C@H]1C(=O)O [AZLOCILLIN]
Not Active: IC50 [1] | IC50 [2] | IC50 [3] | IC50 [4] | IC50 [5] | IC50 [6] | IC50 [7] | Ki [7] | IC50 [8] | Ki [8] | IC50 [9] | Ki [9] | IC50 [10] | IC50 [11] | Ki [11] | IC50 [12] | Ki [12] | IC50 [13] | IC50 [14]
